Reference: patent US20230348506A1, “MACROCYCLIC PANTETHEINE DERIVATIVES AND USES THEREOF” (VectivBio Comet AG, priority 2019, published 2023)

What was measured:
Format in all cases: cell-based, human
[1] = tested on: CD14+ monocytes differentiated to M1 macrophages; assay: M1 differentiation assay (IL6 by ELISA); settings: 10 μM compound
Description: Monocytes were isolated by positive isolation with CD14+ microbeads (Miltenyi, 130-050-201). Monocytes were 99% viable and were 96% purity as analyzed by FACS and CD14+ (BD, 563561). 100,000 monocytes along with compounds at the dose of 10 and 50 μM were allowed to differentiate to macrophages with 10 ng/ml GMCSF (R&D, 15-GM-050/CF) in RPMI complete media (Invitrogen, 22400089) with 15% FBS (Hyclone SV30087.03) and 1% Penicillin-Streptomycin (Gibco, 15140-122). On day 2 and 4 half the media was refreshed with fresh GM-CSF and compounds at 10 and 50 μM dose. On day 6 the macrophages were matured with GMCSF, IFNγ (R&D 285-IF-100/CF) and LPS (Sigma, L6143) in the presence of 10 μM and 50 μM of compounds. After 24 h, supernatant was collected for the measurement of TNFα (DKW, 1117202) IL6 (DKW, 1110602), IL10 (DKW, 1110003) by ELISA. Macrophages were detached gently on ice with EDTA (Invitrogen, 15575-038) and analyzed by FACS (BD LSR Fortessa, 853492). […]

[2] = tested on: Methylmalonic Acidemia (MMA) Primary fibroblasts (GM01673, Coriell Institute for Medical Research); assay: Measurement of total GSH and GSSG dimer (GSH/GSSG ratio); settings: 10 μM compound for 2 hours
Description: Primary adherent fibroblasts were cultured in minimum essential medium (MEM) (Gibco, 25030081) supplemented with 2 mM L-Glutamine (Gibco, 25030081), 15% fetal bovine serum (FBS) (Gibco, 26400044) and 1% penicillin/streptomycin (Gibco, 5140122) at 37° C. and 5% CO2. Cells were collected for either passaging or experiment at ˜70-80% confluence. Cells were obtained by trypsinization and seeded in a white cell culture microplates (Thermo Fisher Scientific, 152028) for luminescent measurement. Cells were obtained by trypsinization and […] were seeded and allowed to adhere for 16-18 hours to have confluency around 70-80% in the cell well with culture media. After 24 hours prior to measurements (37° C, 5% CO2) media was changed to Dulbecco's Modified Eagle Medium (DMEM, Agilent Seahorse cat #103575-100) with the appropriate supplements (1 mM glucose, 2 mM L-glutamine, 1 mM pyruvate, 10% FBS).
Assay was performed according to manufacturer instructions (Promega, V6612). At the end of appropriate time point, the assay requires one plate for total measurement of GSH and one plate for GSSG. For every assay a 11-point standard curve is prepared ranging from 8 μM to 0.013 μM. […] Finally, 100 μl/well of Luciferin Detection reagent were added and incubated for 15 minutes before the chemiluminescence was detected. Free GSH/GSSG ratio was calculated as (Total GSH-GSSH)/(GSSG/2). […]

[3] = tested on: MMA Patient fibroblasts (GM01673, Coriell Institute for Medical Research); assay: Mitochondrial fusion and networking (high-content imaging); design: key: Mitochondrial elongation and networking was described as slight, mild or good; Mitochondrial elongation and networking was described as slight, mild or good; Mitochondrial elongation and networking was described as slight, mild or good; settings: 10 μM compound, 2 hours, compared to vehicle control
Description: (§1) Cells were seeded in 96-well plates (density 3000 cells/well) in culture minimum MEM (GIBCO, 10370-021) supplemented with 2 mM L-Glutamine (Thermo Fisher Scientific), 15% FBS (Thermo Fisher Scientific 26400044) and 1% penicillin/streptomycin. Cells were incubated for 48 hours (37° C, 5% CO2), then treated with 10 μM compounds from the present disclosure, 1% DMSO (vehicle) or 5 μM FCCP (control) for 2 hours in fasted conditional medium: Agilent XF DMEM (Agilent 103575-100), pH 7.4 supplemented with 10% FBS (Thermo Fisher Scientific 26400044), 0.03% penicillin/streptomycin 1 mM glucose, 2 mM L-glutamine and 1 mM pyruvate.
(§2) After treatment, media was removed, and cells were stained with 100 μl of 1×mixture dye solution of 1 μg/mL JC-1 (Invitrogen Cat #T3168) and 50 ng/ml MitoTracker deep red (Invitrogen Cat #M22426) at 37° C. for 30 minutes. Next, staining was removed, the cells were washed once with 150 μl PBS, and 150 μl of fasted conditional medium (described above) is added to each well. Analysis was carried out on live cells using a Thermo Scientific CellInsight CX7 LZR High-Content Screening Platform. Mitochondrial elongation and networking was described as slight, mild or good.

[4] = tested on: PA Patient fibroblasts (Tsi 3618 Trans-Hit Bio); assay: as above; design: key: Mitochondrial elongation and networking was described as slight, mild or good; Mitochondrial elongation and networking was described as slight, mild or good; Mitochondrial elongation and networking was described as slight, mild or good; settings: 10 μM compound, 2 hours, compared to vehicle control
Description: as §1, §2

With `CC1(C)COC(=O)CCC(=O)SCCNC(=O)CCNC(=O)[C@@H]1O` [Compound 206, (R)-15-hydroxy-16,16-dimethyl-1-oxa-6-thia-9,13-diazacycloheptadecane-2,5,10,14-tetraone] the “decrease of levels of IL-6 protein” value [1] was “at least 40%”, the “increase of the GSH/GSSG ratio” value [2] was “at least 20%” and the “mitochondrial elongation and networking” value [3] was “good”. For the same compound, the “mitochondrial elongation and networking” value [4] was “mild”.
